Assay results reported in a melting point compilation (Tetko et al.; mined from patent text by program, amines drawn as free bases though some values may be those of a salt).

SMILES | melting point [°C]
CCCCCCCCCc1cc(=O)c2c(O)cc(O)cc2o1 | 101
COc1c(C)c(C)c2c(c1C)C(C(=O)O)C(C)(C)O2 (stereo not given) | 185 to 187
O=C(NC(=O)c1cccs1)c1cncc([N+](=O)[O-])c1 | 187
Cc1ccc(C2(CCC(=O)O)NC(=O)NC2=O)cc1Cl (stereo not given) | 196 to 199
CC(=O)OCCOc1ccc2oc3cc(C#N)ccc3c(=O)c2c1 | 194 to 196
CC(O)c1cc(C(F)(F)F)cc(S(N)(=O)=O)c1 (stereo not given) | 169 to 170
COC(=O)CCCC#Cc1cc(Cl)ccc1NS(=O)(=O)c1cccc(OC)c1 | 71 to 76
CN(C)C=Nc1cc(Cc2c(Cl)cccc2Cl)nc(Nc2ccc(C#N)cc2)n1 | 175 to 180
COc1ccc(C2(CNC(=S)NCC(C)C)OCCO2)cc1 | 96
O=[N+]([O-])c1cc(F)c(Cl)c(Br)c1Cl | 51 to 53.5
CC(Cn1ncnn1)n1nnc2cc3c(=O)n(Cc4cccnc4)nnc3cc2c1=O (stereo not given) | 200
CC(C)(C)[Si](C)(C)C(F)(F)F | 52 to 54
O=C(O)C(Cc1cc(Oc2c(Cl)cc(C(F)(F)F)cc2Cl)ccc1SC(F)(F)F)C(=O)O | 250
COC(=O)Cc1c(F)cc(O)cc1F | 75.5 to 77.5
COCCN1CCN(S(=O)(=O)c2ccc(-c3cnc4[nH]c(CCc5cc(OC)ccn5)nc4c3)cc2)CC1 | 206 to 208
Cc1nc(C(C)O)c2n1-c1ccc(Cl)cc1C(c1ccccc1Cl)=NC2 (stereo not given) | 197 to 199
O=C(Nc1ccccc1C(c1ccc(O)cc1)c1ccc(O)cc1)c1cccs1 | 240 to 243

SMILES | melting point [°C]
CCOc1cc(C(F)(F)F)sc1C(=O)O | 144
CC(=O)CN1CCc2c(c(=O)oc3cc(C)c([N+](=O)[O-])cc23)C1 | 166 to 168
CC(=O)OCCOc1ccc(C=Cc2ccc(S(C)(=O)=O)cc2)cc1 | 175 to 177
CCCCCCC(C)(C)c1ccc(C2CCCC(=O)C2)c(O)c1 (stereo not given) | 87
CN(C)n1c(Cl)n[nH]c1=O | 158
CCc1c(-c2ccc(O)cc2)c2ccc3ccc(CO)c1n32 | 154 to 156
COc1cc(-c2cc(=O)c3ccc(OCC(O)CNC(C)C)cc3o2)cc(OC)c1OC (stereo not given) | 106 to 107
N#CSc1cc(Cl)c(NCCC(=O)O)cc1Cl | 133 to 135
CCOC(=O)Cc1cccc(N)c1 | 135
COc1ccc(-c2[nH]nc3c2C(=O)c2c(NC(=O)NCc4ccc(N)cc4)cccc2-3)cc1 | > 300
CC(CCCO)C1CCC2C3C(O)CC4CC(O)CCC4(C)C3CC(O)C12C (stereo not given) | 226 to 227
CC(C)OC1CCCC(C2NC(=O)C2C(C)O[Si](C)(C)C(C)(C)C)C1O (stereo not given) | 121 to 123
c1csc(-c2ccnc(-c3cc(-c4cccs4)ccn3)c2)c1 | > 250
NCCNS(=O)(=O)c1cc(NC(=O)c2cnn3c(C(F)(F)F)cc(-c4ccc(C(F)(F)F)cc4)nc23)c(Cl)s1 | 195
CC[C@H]1[C@H](O)CC(=O)N1c1ccc(C#N)c(OC)c1 | 138 to 141
CCC(CC)n1cc(Cl)nc(N2CCc3cc(Cl)cc(Cl)c32)c1=O | 168 to 170

Next, values leading:

melting point [°C] | SMILES
85 to 88 | O=C(O)CC1Cc2ccccc2C1
38 to 39 | CCOC(=O)CCc1ccc(OCCOC)cc1OCc1ccccc1
205 to 206 | ON=C(Cn1ccnc1)c1ccc(Cl)cc1Cl
162 | CCc1nnc(-c2ccc(OC)cc2)n1-c1ccc(Cl)cc1
122 to 125 | CCOC(=O)Cc1c(C)n(Cc2ccccc2)c2ccc(O)cc12
89 to 99.5 | Cc1c(C=CC=O)c2c(c(C)c1OCc1ccccc1)CCC(C)(C)O2
> 310 | CCc1nc(N)nc(N)c1N1CCN(c2ccc(C#N)cc2)CC1
127 | Cc1ccc(C(=O)Nc2nc(C(Cl)(Cl)Cl)ns2)cc1
70 to 72 | CCOC(=O)c1cc2c([nH]1)CCCC2
183 to 185 | c1cnc2ccc(Cn3nnc4ccc(-c5ccc(N6CCOCC6)nc5)nc43)cc2c1
121 to 122 | CNC(=S)C1(c2cccnc2)CCCCC1=CCOc1ccccc1 (stereo not given)
131 to 132 | CCSCCNC(=O)Nc1ccccc1CCc1cc(C(C)(C)C)c(O)c(C(C)(C)C)c1
116 to 119 | O=C1c2ccc(F)cc2CCc2cccnc21
189 to 190 | C=C(c1ccc(C(=O)O)cc1)C(O)(Cn1cncn1)c1ccc(F)cc1F (stereo not given)
132 to 137 | NCC1CCCN(c2ncc3ncnc(Nc4ccc(F)c(Cl)c4)c3n2)C1 (stereo not given)
286 to 287 | CC1CNCc2c1[nH]c1cnc3cc(Cl)ccc3c21 (stereo not given)
53 to 54 | OCc1ccn(-c2ccc(OC(F)(F)F)cc2)n1
118 to 120 | CC(C)(C)C(C)(O)C(CCOc1ccccc1)n1cncn1 (stereo not given)
182 to 184 | CC(=O)OCCC1CCc2c(C3=C(c4cn(C)c5ccccc45)C(=O)OC3=O)c3ccccc3n2C1 (stereo not given)
158 to 159 | CN(C[C@H](O)c1cccc(OCC(=O)O)c1)c1cnc(-c2ccccc2)c(-c2ccccc2)n1
254 to 256 | Cc1c(Br)c(=O)n(C2CCCC2)c2nc(Nc3ccc(N4CCOCC4)nc3)ncc12

melting point [°C] | SMILES
146 to 148 | O=C1OC2=C(COc3ccccc32)C1=O
174 to 176 | O=C(CCCCCCCNC(=O)c1cn2c3c(cccc13)CCC2)NO
178 to 180 | Nc1ccc(C=Cc2ccc3ccccc3n2)cc1
164 to 165 | CCNc1nc(-c2ccc(NC(=O)NCc3cccnc3)cc2)ccc1C(=O)NCCN1CCCCC1
> 260 | Nc1ccc(O)c(C(=O)Nc2cccc3[nH]ccc23)c1
165 | Cn1c(=O)c(-c2ccccc2)nc2cc3c(cc21)OC(F)(F)O3
112 | CSc1nc2c(n1-c1ccccc1)CCCC2
139 | COc1ccc(-c2[nH]c(=O)c3cc(OC)ccc3c2N2CCOCC2)cc1
167 to 169 | CCCOc1ccc(-c2cncn2-c2ccc(S(C)(=O)=O)cc2)cc1
76 to 79 | COc1ccc(C2=NN(CC=Cc3ccccc3)C(=O)C3CCCCC23)cc1OC (stereo not given)
323 to 325 | O=C(c1nccs1)c1cnn2c(-c3ccncc3)ccnc12
117 to 120 | COc1ccc2c(c1)C(=O)Cc1c(Cl)cccc1S2
148 to 149 | CC(C)(C)OC(=O)c1sc(Nc2ccccc2)c2c1CCc1cnoc1-2
176 to 177 | COC(=O)c1cc2cc(Br)ccc2nc1Cl
137 to 138 | CCOC(=O)c1cc(-c2ccc(N)cc2)cnc1C
65 to 66 | c1ccc2c(c1)CCc1cc(C3CO3)ccc1-2 (stereo not given)
181 to 182 | OCc1cccc(-c2ccc3nc(-c4ccc(Cl)cc4)cn3c2)c1
168 to 170 | Cn1nc(COc2ccc(C=O)cc2)c2ccccc2c1=O
124 to 127 | COC(=O)c1csc(-c2cc3ccccc3n2C)n1
141 to 143 | CC(S)C(=O)N1c2ccccc2CCC1C(=O)O (stereo not given)
147 to 150 | CCCCc1nc2c(N)nc3ccc(OCCC4CCN(C(=O)C5CCCC5)CC4)cc3c2n1C
